Results taken from patent publication US11938133B2, “Stable pharmaceutical composition for oral administration” (ASTELLAS PHARMA INC., priority 2015, dated 2024).

Columns and labels:
[1] = test system: EML4 (Echinoderm microtubule associated protein like-4)-ALK (Anaplastic lymphoma kinase) fusion protein; conditions: reported in Patent literature 1 (WO 2010/128659); cited from earlier work
[2] = Calculation of proportion of crystals by near-infrared spectroscopy; assay type: physicochemical; conditions: Compound A hemifumarate after water was added to the crystals and dried (material used for Examples 4 to 15)
Method: As a method of calculating the proportion of crystals of Compound A hemifumarate in Compound A hemifumarate, for example, the spectrum is measured, as a near-infrared spectroscopy measurement, by a Fourier transform near-infrared spectrometer (MPA, Bruker Optics K. K.)(measurement range; 12500 cm^−1 to 5800 cm^−1, resolution; 8 cm^−1, number of scans; 32), and the obtained spectrum is secondary-differentiated (Savitzky-Golay convolution method), and can be analyzed using a near-infrared spectrum analysis software (for example, OPUS, Bruker Optics K. K.). The pharmaceutical composition for oral administration is powdered using a mortar and pestle to measure the spectrum. Before the spectrum measurement of the pharmaceutical composition for oral administration, spectra of preparations, in which crystals of Compound A hemifumarate are mixed in various proportions, are regression-analyzed by a partial least square method to create a calibration curve, and each spectrum obtained from the pharmaceutical composition for oral administration is interpolated into the calibration curve to calculate the proportion of crystals of Compound A hemifumarate.
With respect to the tablets (film coated tablets) prepared in Comparative Example 1, Example 1, Example 2, and Example 3, the proportion of crystals of Compound A hemifumarate after production was calculated by near-infrared spectroscopy. […]

[3] = Stability of drug substance alone in heat and humidity (severity test or the like); assay type: physicochemical; conditions: certain storage conditions such as a severity test

| Proportion of crystals [2] [%] | Stability of drug substance alone (in words) [3] | SMILES | Inhibitory activity of a kinase activity of EML4-ALK fusion protein [1] |
| --- | --- | --- | --- |
|  |  | CCc1nc(C(N)=O)c(Nc2ccc(N3CCC(N4CCN(C)CC4)CC3)c(OC)c2)nc1NC1CCOCC1 [Compound A, 6-Ethyl-3-({3-methoxy-4-[4-(4-methylpiperazin-1-yl)piperidin-1-yl]phenyl}amino)-5-(tetrahydro-2H-pyran-4-ylamino)pyrazine-2-carboxamide] | inhibitory activity |
| 62 | stable in heat and humidity alone | CCc1nc(C(N)=O)c(Nc2ccc(N3CCC(N4CCN(C)CC4)CC3)c(OC)c2)nc1NC1CCOCC1 [Compound A hemifumarate] |  |
